Test results reported in patent US20110104186A1, “Small molecule immunopotentiators and assays for their detection” (priority 2004, published 2011).

Test system: TNF-α production
Assay: In vitro inhibition of TNF-α production by 1H-imidazoquinolines
Format: cell-based

Molecule | IC50 [µM]
4-({2-[(4-chlorophenyl)amino]-1-methyl-1H-benzimidazol-5-yl}oxy)-N-1,3-thiazol-2-ylpyridine-2-carboxamide [Example 9] | 0.205
CNC(=O)c1cc(Oc2ccc3[nH]c(Nc4ccccc4C(C)C)nc3c2)ccn1 [Example 2, N-methyl-4-[(2-{[2-(1-methylethyl)phenyl]amino}-1H-benzimidazol-5-yl)oxy]pyridine-2-carboxamide] | 4.81
3-[(4-pyridin-2-ylpiperazin-1-yl)carbonyl]-7-oxabicyclo[2.2.1]heptane-2-carboxylic acid [Example 17] | 2.67
1-[2-(methyloxy)phenyl]-4-{[3,4,5-tris(methyloxy)phenyl]carbonyl} piperazine [Example 16] | 8.02
3-({4-[(2E)-3-phenylprop-2-enyl]piperazin-1-yl}carbonyl)-7-oxabicyclo[2.2.1]heptane-2-carboxylic acid [Example 15] | 3.68

More lines, now with the values ahead:

IC50 [µM] | Molecule
3.66 | 1-[(3-fluorophenyl)carbonyl]-4-{[4-(trifluoromethyl)phenyl] methyl}piperazine [Example 12]
1.38 | CCOc1ccccc1C(=O)N1CCN(c2cccc(Cl)c2)CC1 [Example 14, 1-(3-chlorophenyl)-4-{[2-(ethyloxy)phenyl]carbonyl}-piperazine]
> 10 | 3-pentyl-7-[(4-phenylpiperazin-1-yl)carbonyl]-2-thioxo-2,3-dihydroquinazolin-4(1H)-one [Example 18]
> 10 | COc1cccc(C(=O)N2CCc3cc(OC)c(OC)cc3C2C)c1 (stereo not drawn) [Example 22]
